From the supplement of paper PMC10307832

Columns and labels:
Experiment in all cases: relative viability (nuclei count vs DMSO), 5 days (fraction); higher = more cells survive
[1] = compound: CC1=CC(=NN1)NC2=CC(=NC(=N2)/C=C/C3=CC=CC=C3)N4CCN(CC4)C + CC(=O)Nc1cccc(-n2c(=O)n(C3CC3)c(=O)c3c(Nc4ccc(I)cc4F)n(C)c(=O)c(C)c32)c1 [Trametinib] (partner 0.02 µM)
Summary of the method: (§1)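 A single step with final 0.05% Triton X-100, 1% formaldehyde and 1 ug/ml Hoechst fixed the cells and stained nuclei 5 days after treatment. Lung cancer cell lines in 1536-well plates had been treated by pin tool the day after seeding with one drug alone or a fixed anchor-drug dose plus five library-drug doses (not always all listed) in √10 steps, and nuclei were counted on 4× images. Relative viability is the ratio of nuclei in treated wells to nuclei in vehicle wells, taken as the median of duplicate plates.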

Obatoclax + Trametinib = compound: COC1=CC(c2cc3ccccc3[nH]2)=N/C1=C\c1[nH]c(C)cc1C [Obatoclax] + CC(=O)Nc1cccc(-n2c(=O)n(C3CC3)c(=O)c3c(Nc4ccc(I)cc4F)n(C)c(=O)c(C)c32)c1 [Trametinib] (partner 0.02 µM)
Summary of the method: as §1

Bortezomib + Foretinib = compound: CC(C)C[C@H](NC(=O)[C@H](Cc1ccccc1)NC(=O)c1cnccn1)B(O)O [Bortezomib] + COc1cc2c(Oc3ccc(NC(=O)C4(C(=O)Nc5ccc(F)cc5)CC4)cc3F)ccnc2cc1OCCCN1CCOCC1 [Foretinib] (partner 0.25 µM)
Summary of the method: as §1

Cell Line | relative viability ([1]; first compound 0.08 µM) | relative viability ([1]; first compound 0.253 µM) | relative viability ([1]; first compound 0.8 µM) | relative viability ([1]; first compound 2.53 µM) | relative viability ([1]; first compound 8 µM) | relative viability (Obatoclax + Trametinib; first compound 0.01 µM) | relative viability (Obatoclax + Trametinib; first compound 0.03162 µM) | relative viability (Obatoclax + Trametinib; first compound 0.1 µM) | relative viability (Obatoclax + Trametinib; first compound 0.3162 µM) | relative viability (Obatoclax + Trametinib; first compound 1 µM) | relative viability (Bortezomib + Foretinib; first compound 0.0002 µM) | relative viability (Bortezomib + Foretinib; first compound 0.000632 µM) | relative viability (Bortezomib + Foretinib; first compound 0.002 µM) | relative viability (Bortezomib + Foretinib; first compound 0.006325 µM) | relative viability (Bortezomib + Foretinib; first compound 0.02 µM)
NCI-H2342 | 1 | 0.869 | 0.958 | 0.962 | 0.602 | 0.859 | 0.849 | 0.907 | 0.788 | 0.861 | 1.02 | 0.945 | 0.829 | 0.929 | 0.34
BEN | 0.901 | 1.07 | 1.02 | 0.895 | 0.31 | 1.01 | 1.01 | 0.861 | 0.944 | 1.03 | 0.494 | 0.866 | 0.769 | 0.572 | 0.356
EPLC-272H | 0.251 | 0.261 | 0.292 | 0.213 | 0.126 | 0.306 | 0.301 | 0.352 | 0.252 | 0.301 | 0.7 | 0.506 | 0.148 | 0.0867 | 0.0676
LK-2 | 0.836 | 0.48 | 0.697 | 0.417 | 0.129 | 0.846 | 0.794 | 1.02 | 0.783 | 0.914 | 0.982 | 1.39 | 1.12 | 0.161 | 0.165
ChaGo-K-1 | 0.937 | 0.887 | 0.807 | 0.753 | 0.19 | 0.951 | 0.846 | 0.869 | 0.894 | 0.878 | 0.837 | 0.822 | 0.992 | 0.245 | 0.185
UMC-11 | 0.682 | 0.681 | 0.503 | 0.162 | 0.101 | 0.669 | 0.674 | 0.466 | 0.643 | 0.393 | 0.801 | 0.97 | 0.96 | 0.449 | 0.175
HCC-827 | 0.507 | 0.405 | 0.513 | 0.427 | 0.273 | 0.523 | 0.512 | 0.734 | 0.475 | 0.595 | 1.11 | 1.01 | 0.693 | 0.113 | 0.0926
NCI-H1993 | 0.506 | 0.541 | 0.408 | 0.616 | 0.509 | 0.553 | 0.632 | 0.574 | 0.462 | 0.72 | 0.802 | 0.755 | 0.912 | 0.648 | 0.479
NCI-H647 | 0.504 | 0.282 | 0.377 | 0.109 | 0.0926 | 0.406 | 0.475 | 0.422 | 0.22 | 0.127 | 0.904 | 1.3 | 1.25 | 0.0379 | 0.0377
NCI-H460 | 0.171 | 0.0318 | 0.129 | 0.0109 | 0.0042 | 0.151 | 0.132 | 0.232 | 0.0458 | 0.0584 | 0.983 | 1.03 | 1.13 | 0.115 | 0.0294
EMC-BAC-2 | 0.899 | 0.698 | 0.938 | 0.691 | 0.283 | 0.959 | 0.937 | – | 0.89 | 0.557 | 0.993 | 1.03 | 1.13 | 0.279 | 0.203
NCI-H23 | 0.302 | 0.317 | 0.257 | 0.142 | 0.118 | 0.384 | 0.442 | 0.451 | 0.357 | 0.363 | 0.895 | 0.972 | 0.861 | 0.166 | 0.14
A-427 | 0.632 | 0.6 | 0.76 | 0.451 | 0.215 | 0.785 | 0.689 | 0.849 | 0.729 | 0.621 | 1.02 | 1.1 | 0.932 | 0.483 | 0.122
NCI-H322M | 0.485 | 0.57 | 0.811 | 0.337 | 0.327 | 0.547 | 0.482 | 0.71 | 0.535 | 0.669 | 0.894 | – | 0.773 | 0.654 | 0.327
COR-L23 | 0.549 | 0.244 | 0.574 | 0.102 | 0.0853 | 0.541 | 0.607 | 0.44 | 0.252 | 0.194 | 0.934 | 0.931 | 0.874 | 0.0924 | 0.0681
